Test results as given in PubChem BioAssay (NCI).
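1) Cells in 96-well plates. 2) Compound, 48 h, 5 concentrations. 3) Linear interpolation between surrounding doses. 4) Unreached endpoint = highest concentration. TGI: concentration producing complete growth inhibition.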

Tests used:
Test in all cases: inhibition of tumour cell growth, NCI panel, 48 h
TK-10 renal = system: TK-10 renal
786-0 renal = system: 786-0 renal
OVCAR-5 ovarian = system: OVCAR-5 ovarian
SR leukemia = system: SR leukemia
SW-620 colon = system: SW-620 colon
M19-MEL melanoma = system: M19-MEL melanoma
UACC-62 melanoma = system: UACC-62 melanoma
A498 renal = system: A498 renal
SF-295 CNS = system: SF-295 CNS
HCT-116 colon = system: HCT-116 colon
RXF-631 renal = system: RXF-631 renal
IGROV1 ovarian = system: IGROV1 ovarian
EKVX NSCLC = system: EKVX NSCLC
HCT-15 colon = system: HCT-15 colon
MALME-3M melanoma = system: MALME-3M melanoma
OVCAR-3 ovarian = system: OVCAR-3 ovarian
SF-268 CNS = system: SF-268 CNS
SNB-78 CNS = system: SNB-78 CNS
XF 498 CNS = system: XF 498 CNS
DMS 114 small cell lung = system: DMS 114 small cell lung
HOP-18 NSCLC = system: HOP-18 NSCLC
SNB-19 CNS = system: SNB-19 CNS
ACHN renal = system: ACHN renal
UACC-257 melanoma = system: UACC-257 melanoma
NCI-H23 lung = system: NCI-H23 lung
HCC-2998 colon = system: HCC-2998 colon
CCRF-CEM leukemia = system: CCRF-CEM leukemia
A549 NSCLC = system: A549 NSCLC
M14 melanoma = system: M14 melanoma
SK-MEL-5 melanoma = system: SK-MEL-5 melanoma
OVCAR-4 ovarian = system: OVCAR-4 ovarian
DLD-1 colon = system: DLD-1 colon
OVCAR-8 ovarian = system: OVCAR-8 ovarian
NCI-H226 lung = system: NCI-H226 lung
UO-31 renal = system: UO-31 renal
LXFL 529 NSCLC = system: LXFL 529 NSCLC
RPMI-8226 leukemia = system: RPMI-8226 leukemia
MOLT-4 leukemia = system: MOLT-4 leukemia
SF-539 CNS = system: SF-539 CNS
HT29 colon = system: HT29 colon
K-562 leukemia = system: K-562 leukemia
HOP-92 NSCLC = system: HOP-92 NSCLC
RXF 393 renal = system: RXF 393 renal
KM20L2 colon = system: KM20L2 colon
HL-60(TB) leukemia = system: HL-60(TB) leukemia
KM12 colon = system: KM12 colon
DMS 273 small cell lung = system: DMS 273 small cell lung
SNB-75 CNS = system: SNB-75 CNS
SK-OV-3 ovarian = system: SK-OV-3 ovarian
COLO 205 colon = system: COLO 205 colon
SK-MEL-2 melanoma = system: SK-MEL-2 melanoma
SN12C renal = system: SN12C renal
NCI-H460 lung = system: NCI-H460 lung
CAKI-1 renal = system: CAKI-1 renal
U251 CNS = system: U251 CNS
HOP-62 NSCLC = system: HOP-62 NSCLC
SK-MEL-28 melanoma = system: SK-MEL-28 melanoma
NCI-H522 lung = system: NCI-H522 lung
LOX IMVI melanoma = system: LOX IMVI melanoma

Measured: TGI

N#CN1CC[C@@H]2CC3(CCC2C1)OCCO3 (stereo not given in full)
not listed: SK-MEL-28 melanoma | NCI-H522 lung | LOX IMVI melanoma
> 100 µM: all other assays above

CC1(Cl)C(=O)NC(=O)N([C@H]2C[C@H](O)[C@@H](CO)O2)C1N=[N+]=[N-] (stereo not given in full)
> 100 µM: all assays above
